A short description of the data set: Solubility in water. In kind it is physicochemical. As to conditions: compared with memantine hydrochloride.

As for `CC12CC3CC(C)(C1)CC(NC(=O)OCOC(=O)c1ccccc1)(C3)C2` [formula A, ((((1r,3R,5S,7r)-3,5-dimethyladamantan-1-yl)carbamoyl)oxy)methyl benzoate], the solubility result was “almost insoluble in water”.

The values above are taken from US12558338B2, “Pharmaceutical composition” (SUNSHINE LAKE PHARMA CO., LTD., priority 2019, dated 2026).
